# From publication PMC7429357 (Journal of medicinal chemistry, 2020)
# Like-named read-outs stand apart in the source and are kept apart here.
# Assays:
# NTMT1 [1] = molecular target: T1, NTMT1 (Homo sapiens, UniProt Q9BV86); experiment: SAHH-coupled fluorescence assay; type: biochemical; settings: for fold decrease in IC50 activity compared to 3: 10 min preincubation; for fold activity decrease compared to respective NAH-GPKRIA compound: 5 vs 1, 6 vs 2
# T1 sequence (Q9BV86 1-223): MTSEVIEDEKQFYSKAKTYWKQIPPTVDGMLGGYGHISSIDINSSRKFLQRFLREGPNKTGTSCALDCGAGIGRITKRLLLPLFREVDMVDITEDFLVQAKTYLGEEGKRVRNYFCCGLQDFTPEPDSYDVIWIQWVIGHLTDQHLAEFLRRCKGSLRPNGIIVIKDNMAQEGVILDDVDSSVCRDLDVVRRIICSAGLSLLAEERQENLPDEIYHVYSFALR
# NTMT1 [2] = molecular target: T1, NTMT1
# NTMT1 [3] = molecular target: T1, NTMT1; experiment: MALDI-MS methylation inhibition assay; type: biochemical; settings: 10 min preincubation, 20 min
# [4] = molecular target: euchromatic histone-lysine N-methyltransferase 2 (G9a) (Homo sapiens, UniProt Q96KQ7); settings: at 100 μM
# Chain of euchromatic histone-lysine N-methyltransferase 2 (G9a) (Q96KQ7 whole entry, species assumed, the tested form may be a part): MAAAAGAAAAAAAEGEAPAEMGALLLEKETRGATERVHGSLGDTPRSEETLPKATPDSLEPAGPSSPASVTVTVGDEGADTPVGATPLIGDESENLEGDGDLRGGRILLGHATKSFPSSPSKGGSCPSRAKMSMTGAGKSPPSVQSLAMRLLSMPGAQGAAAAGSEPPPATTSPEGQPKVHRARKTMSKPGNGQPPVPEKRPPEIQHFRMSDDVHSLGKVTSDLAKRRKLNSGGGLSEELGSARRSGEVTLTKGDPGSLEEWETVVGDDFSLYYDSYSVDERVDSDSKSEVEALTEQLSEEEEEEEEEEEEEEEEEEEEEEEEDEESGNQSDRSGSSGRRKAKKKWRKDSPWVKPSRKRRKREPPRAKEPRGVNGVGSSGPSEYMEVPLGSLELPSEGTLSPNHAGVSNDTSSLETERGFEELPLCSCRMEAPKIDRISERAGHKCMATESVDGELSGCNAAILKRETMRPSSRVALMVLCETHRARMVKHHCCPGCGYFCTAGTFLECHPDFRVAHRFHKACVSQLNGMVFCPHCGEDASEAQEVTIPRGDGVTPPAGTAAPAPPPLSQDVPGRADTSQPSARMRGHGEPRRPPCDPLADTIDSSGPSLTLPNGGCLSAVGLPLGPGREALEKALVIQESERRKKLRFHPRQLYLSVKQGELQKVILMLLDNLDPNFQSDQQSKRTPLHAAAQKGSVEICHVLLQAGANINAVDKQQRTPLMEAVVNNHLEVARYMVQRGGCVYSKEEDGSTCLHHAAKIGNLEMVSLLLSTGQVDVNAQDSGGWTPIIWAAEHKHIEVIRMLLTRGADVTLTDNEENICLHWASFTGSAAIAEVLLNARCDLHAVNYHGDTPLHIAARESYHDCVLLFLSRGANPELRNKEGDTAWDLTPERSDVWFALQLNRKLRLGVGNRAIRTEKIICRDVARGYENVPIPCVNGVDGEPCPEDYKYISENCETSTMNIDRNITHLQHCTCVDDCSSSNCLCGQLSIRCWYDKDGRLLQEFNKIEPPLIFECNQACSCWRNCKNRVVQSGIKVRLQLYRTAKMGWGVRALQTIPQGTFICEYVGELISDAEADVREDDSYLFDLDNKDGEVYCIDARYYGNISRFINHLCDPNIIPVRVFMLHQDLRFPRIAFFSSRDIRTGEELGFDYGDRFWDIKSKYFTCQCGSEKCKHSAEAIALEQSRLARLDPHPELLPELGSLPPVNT
# [5] = molecular target: SET domain-containing protein 7 (SETD7) (Homo sapiens, UniProt Q8WTS6); settings: at 100 μM
# Chain of SET domain-containing protein 7 (SETD7) (Q8WTS6 whole entry, species assumed, the tested form may be a part): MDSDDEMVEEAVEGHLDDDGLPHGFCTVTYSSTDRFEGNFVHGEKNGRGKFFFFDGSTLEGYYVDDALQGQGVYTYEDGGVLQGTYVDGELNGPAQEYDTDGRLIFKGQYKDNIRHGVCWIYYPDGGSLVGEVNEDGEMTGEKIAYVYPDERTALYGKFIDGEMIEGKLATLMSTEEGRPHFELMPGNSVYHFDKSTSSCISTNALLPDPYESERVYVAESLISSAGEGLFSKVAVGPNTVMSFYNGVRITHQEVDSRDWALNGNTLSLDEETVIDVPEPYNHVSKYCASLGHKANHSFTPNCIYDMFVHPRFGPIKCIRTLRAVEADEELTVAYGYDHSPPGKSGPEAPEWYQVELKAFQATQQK
# [6] = molecular target: nicotinamide N-methyltransferase (NNMT) (Homo sapiens, UniProt P40261); settings: at 100 μM
# Chain of nicotinamide N-methyltransferase (NNMT) (P40261 whole entry, species assumed): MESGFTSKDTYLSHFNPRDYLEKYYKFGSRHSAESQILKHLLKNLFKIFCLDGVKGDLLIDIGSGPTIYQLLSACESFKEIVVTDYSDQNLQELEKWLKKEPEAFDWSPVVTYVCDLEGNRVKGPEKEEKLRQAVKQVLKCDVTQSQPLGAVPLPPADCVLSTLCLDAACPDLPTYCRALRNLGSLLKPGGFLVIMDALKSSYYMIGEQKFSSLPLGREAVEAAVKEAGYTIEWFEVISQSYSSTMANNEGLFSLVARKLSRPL
# [7] = molecular target: Trypanosoma brucei protein arginine methyltransferase 7 (TbPRMT7) (Trypanosoma brucei brucei, UniProt Q582G4); experiment: biochemical
# Chain of Trypanosoma brucei protein arginine methyltransferase 7 (TbPRMT7) (Q582G4 whole entry): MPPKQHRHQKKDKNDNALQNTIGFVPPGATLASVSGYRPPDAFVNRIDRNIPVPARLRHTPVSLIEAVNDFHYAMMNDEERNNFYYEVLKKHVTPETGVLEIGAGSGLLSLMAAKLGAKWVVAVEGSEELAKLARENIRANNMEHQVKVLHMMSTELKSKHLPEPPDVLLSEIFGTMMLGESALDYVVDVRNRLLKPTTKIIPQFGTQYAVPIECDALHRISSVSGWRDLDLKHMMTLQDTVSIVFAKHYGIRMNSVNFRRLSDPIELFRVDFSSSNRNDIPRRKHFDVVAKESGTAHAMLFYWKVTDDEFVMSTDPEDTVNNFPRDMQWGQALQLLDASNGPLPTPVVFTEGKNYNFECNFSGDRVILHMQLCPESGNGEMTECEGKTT
# NTMT1 [8] = settings: cited from earlier work
# NTMT1 [9] = settings: MALDI-MS based assay; cited from earlier work
# other methyltransferases = settings: cited from earlier work
molecule,measurement,setting,value
"CC[C@H](C)[C@H](NC(=O)[C@H](CCCNC(=N)N)NC(=O)[C@H](CCCCN)NC(=O)[C@@H]1CCCN1C(=O)CNCCN(CC[C@H](N)C(=O)O)C[C@H]1O[C@@H](n2cnc3c(N)ncnc32)[C@H](O)[C@@H]1O)C(=O)N[C@@H](C)C(N)=O [Compound 1, NAH-C2-GPKRIA]",fold decrease in IC50 activity compared to 3,NTMT1 [1],3 fold
same,"fold decrease in Ki, app in comparison with 3",NTMT1 [2],40 fold
"CC[C@H](C)[C@H](NC(=O)[C@H](CCCNC(=N)N)NC(=O)[C@H](CCCCN)NC(=O)[C@@H]1CCCN1C(=O)CNCCCN(CC[C@H](N)C(=O)O)C[C@H]1O[C@@H](n2cnc3c(N)ncnc32)[C@H](O)[C@@H]1O)C(=O)N[C@@H](C)C(N)=O [Compound 2, NAH-C3-GPKRIA]",fold decrease in IC50 activity compared to 3,NTMT1 [1],1.5 fold
"CC[C@H](C)[C@H](NC(=O)[C@H](CCCNC(=N)N)NC(=O)[C@H](CCCCN)NC(=O)[C@@H]1CCCN1C(=O)CNCCCCN(CC[C@H](N)C(=O)O)C[C@H]1O[C@@H](n2cnc3c(N)ncnc32)[C@H](O)[C@@H]1O)C(=O)N[C@@H](C)C(N)=O [Compound 3, NAH-C4-GPKRIA]",tri-methylation of GPKRIA peptide,NTMT1 [3]; 50 nM compound,substantially reduced
same,tri-methylation of GPKRIA peptide,NTMT1 [3]; 200 nM compound,barely detected
same,inhibitory activity,[4],barely showed inhibitory activity
same,inhibitory activity,[5],barely showed inhibitory activity
same,inhibitory activity,[6],barely showed inhibitory activity
same,inhibition at 33 µM,[7],< 50%
"N=C(N)NCCC[C@H](NC(=O)[C@H](CCCCN)NC(=O)[C@@H]1CCCN1C(=O)CNCCN(CC[C@H](N)C(=O)O)C[C@H]1O[C@@H](n2cnc3c(N)ncnc32)[C@H](O)[C@@H]1O)C(N)=O [Compound 5, NAH-C2-GPKR]",fold activity decrease compared to respective NAH-GPKRIA compound,NTMT1 [1],< 2 fold
"N=C(N)NCCC[C@H](NC(=O)[C@H](CCCCN)NC(=O)[C@@H]1CCCN1C(=O)CNCCCN(CC[C@H](N)C(=O)O)C[C@H]1O[C@@H](n2cnc3c(N)ncnc32)[C@H](O)[C@@H]1O)C(N)=O [Compound 6, NAH-C3-GPKR]",fold activity decrease compared to respective NAH-GPKRIA compound,NTMT1 [1],< 2 fold
"N=C(N)NCCC[C@H](NC(=O)[C@H](CCCCN)NC(=O)[C@@H]1CCCN1C(=O)CNCCCCN(CC[C@H](N)C(=O)O)C[C@H]1O[C@@H](n2cnc3c(N)ncnc32)[C@H](O)[C@@H]1O)C(N)=O [Compound 7, NAH-C4-GPKR]",fold better activity than 5,NTMT1 [1],4 fold
same,fold better activity than 6,NTMT1 [1],2 fold
NAH-C3-GPRRRS,IC50,NTMT1 [8],940 ± 160 nM
NAH-C3-PPKRIA,IC50,NTMT1 [9],35 ± 2 nM
same,selectivity against other methyltransferases,other methyltransferases,more than 100 fold
